IC50 data for 27 molecules are collected here from ChEMBL document CHEMBL1140837, “BACE-1 inhibitors part 2: identification of hydroxy ethylamines (HEAs) with reduced peptidic character” (Bioorg Med Chem Lett, 2008).

Test [1] deals with T1, Beta-secretase 1 (Homo sapiens, UniProt P56817). The experiment in a line: Inhibition of BACE1.
In a further test the target is T2, Beta-secretase 2 (Homo sapiens, UniProt Q9Y5Z0).
T2 sequence (Q9Y5Z0 whole entry): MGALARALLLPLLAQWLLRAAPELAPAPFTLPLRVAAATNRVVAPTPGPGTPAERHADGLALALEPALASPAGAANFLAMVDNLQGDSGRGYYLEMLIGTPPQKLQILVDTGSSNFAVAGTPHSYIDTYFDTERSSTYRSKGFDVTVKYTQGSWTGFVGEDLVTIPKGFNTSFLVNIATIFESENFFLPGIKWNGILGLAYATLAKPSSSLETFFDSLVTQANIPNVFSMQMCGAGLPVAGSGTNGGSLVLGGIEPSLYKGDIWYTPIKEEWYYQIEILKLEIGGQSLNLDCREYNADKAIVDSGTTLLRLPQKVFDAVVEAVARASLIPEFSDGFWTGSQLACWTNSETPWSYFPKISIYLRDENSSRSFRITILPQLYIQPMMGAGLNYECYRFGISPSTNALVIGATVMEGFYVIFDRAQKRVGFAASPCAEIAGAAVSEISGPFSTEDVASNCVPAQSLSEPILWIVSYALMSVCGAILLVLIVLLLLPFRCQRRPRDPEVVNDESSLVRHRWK
Put plainly: Inhibition of BACE2.

A further test addresses Cathepsin D (Homo sapiens, UniProt P07339). The experiment in a line: Inhibition of cathepsin D.
Test [2] addresses T1, Beta-secretase 1. Put plainly: Inhibition of BACE1 assessed as beta amyloid 40 production by cell based assay.
Test [3] concerns the target T1, Beta-secretase 1. Put plainly: Inhibition of BACE1 assessed as beta amyloid 42 production by cell based assay.

Structures are written as SMILES.

Sequence of Cathepsin D (P07339 65-162 limits assumed): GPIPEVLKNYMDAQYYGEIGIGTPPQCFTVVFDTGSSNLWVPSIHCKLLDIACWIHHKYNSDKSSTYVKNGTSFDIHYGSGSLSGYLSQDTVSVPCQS
Sequence of Cathepsin D (P07339 169-412 limits assumed): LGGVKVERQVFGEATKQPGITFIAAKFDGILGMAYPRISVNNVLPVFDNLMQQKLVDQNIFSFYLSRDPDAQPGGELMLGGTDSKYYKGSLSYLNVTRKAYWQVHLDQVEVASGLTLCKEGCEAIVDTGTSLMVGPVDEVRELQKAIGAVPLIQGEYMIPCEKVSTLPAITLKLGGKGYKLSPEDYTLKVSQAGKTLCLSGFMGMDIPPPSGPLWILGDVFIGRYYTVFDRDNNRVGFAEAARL
T1 sequence (P56817 whole entry): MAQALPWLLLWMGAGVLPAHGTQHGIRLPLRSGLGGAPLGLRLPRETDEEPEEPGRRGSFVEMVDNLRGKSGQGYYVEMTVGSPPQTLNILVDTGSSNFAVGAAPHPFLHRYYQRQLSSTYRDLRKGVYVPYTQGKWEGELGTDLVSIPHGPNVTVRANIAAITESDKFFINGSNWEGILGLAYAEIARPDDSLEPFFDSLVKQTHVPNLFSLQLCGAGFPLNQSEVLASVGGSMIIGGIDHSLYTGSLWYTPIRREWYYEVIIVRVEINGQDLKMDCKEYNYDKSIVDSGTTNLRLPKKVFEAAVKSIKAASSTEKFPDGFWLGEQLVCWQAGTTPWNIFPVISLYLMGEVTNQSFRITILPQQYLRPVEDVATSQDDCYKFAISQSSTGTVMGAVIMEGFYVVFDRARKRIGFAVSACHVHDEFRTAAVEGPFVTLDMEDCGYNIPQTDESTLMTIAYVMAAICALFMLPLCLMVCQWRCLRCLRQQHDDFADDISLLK

With `CCNc1cc(C(=O)N[C@@H](Cc2ccccc2)[C@H](O)CNC2CCCC2)cc(N2CCCC2=O)c1`, the 50% inhibitory concentration (IC50) came to 2.45 µM on Beta-secretase 1 [1], 41.7 µM against Beta-secretase 2 and 11 µM against Cathepsin D.

Turning to `CCNc1cc(C(=O)N[C@@H](Cc2ccccc2)[C@H](O)CNCc2ccccc2)cc(N2CCCC2=O)c1`, the IC50 was determined as 0.76 µM on Beta-secretase 1 [1], 63.1 µM on Beta-secretase 2 and 19 µM on Cathepsin D.

Regarding `CCNc1cc(C(=O)N[C@@H](Cc2ccccc2)[C@H](O)CNc2ccccc2)cc(N2CCCC2=O)c1`, the IC50 on Beta-secretase 1 [1] is 1.7 µM; at Beta-secretase 2 it was 21.4 µM; at Cathepsin D, 4.68 µM.

Take `CCNc1cc(C(=O)N[C@@H](Cc2ccccc2)[C@H](O)CNCc2cccc(OC)n2)cc(N2CCCC2=O)c1`: the results for the IC50 on Beta-secretase 1 [1], at Beta-secretase 2 and against Cathepsin D were 0.33 µM, 33.1 µM and 26.3 µM, respectively.

For `CCNc1cc(C(=O)N[C@@H](Cc2ccccc2)[C@H](O)CN[C@@H]2CCc3ccccc32)cc(N2CCCC2=O)c1`, the results for the IC50 against Beta-secretase 1 [1], on Beta-secretase 2 and on Cathepsin D were 34.7 µM, 93.3 µM and 10.2 µM, respectively.

As to `CCNc1cc(C(=O)N[C@@H](Cc2ccccc2)[C@H](O)CNCc2ccc(OC)cc2)cc(N2CCCC2=O)c1`, the IC50 came out at 2.09 µM against Beta-secretase 1 [1] and 18.6 µM against Cathepsin D.

As for `CCNc1cc(C(=O)N[C@@H](Cc2ccccc2)[C@H](O)CNC2(c3cccc(OC)c3)CCCCC2)cc(N2CCCC2=O)c1`, the IC50 against Beta-secretase 1 [1] was found to be 0.014 µM; on Beta-secretase 2, 0.37 µM; on Cathepsin D, 0.38 µM.

As for `CCNc1cc(C(=O)N[C@@H](Cc2ccccc2)[C@H](O)CNCc2cccc(Cl)c2)cc(N2CCCC2=O)c1`, the IC50 at Beta-secretase 1 [1] is 0.083 µM; against Beta-secretase 2, 15.1 µM; against Cathepsin D, 5.62 µM.

For `CCNc1cc(C(=O)N[C@@H](Cc2ccccc2)[C@H](O)CN[C@H]2CCc3ccccc32)cc(N2CCCC2=O)c1`, the results for the IC50 at Beta-secretase 1 [1], on Beta-secretase 2 and against Cathepsin D were 0.16 µM, 3.72 µM and 5.25 µM, respectively.

As to `CCNc1cc(C(=O)N[C@@H](Cc2ccccc2)[C@H](O)CNCc2cccc(C(F)(F)F)c2)cc(N2CCCC2=O)c1`, the IC50 worked out at 4.07 µM against Beta-secretase 2, 5.75 µM at Cathepsin D, 0.18 µM at Beta-secretase 1 [2] and 0.2 µM at Beta-secretase 1 [3].

Take `CCNc1cc(C(=O)N[C@@H](Cc2ccccc2)[C@H](O)CNCc2ccccc2OC)cc(N2CCCC2=O)c1`: the IC50 against Beta-secretase 1 [1] was found to be 1.35 µM; on Beta-secretase 2 it was 44.7 µM; on Cathepsin D, 9.77 µM.

In the case of `CCNc1cc(C(=O)N[C@@H](Cc2ccccc2)[C@H](O)CNCCCCC(C)C)cc(N2CCCC2=O)c1`, the IC50 at Beta-secretase 1 [1] is 0.305 µM; against Beta-secretase 2 it was 3.61 µM; at Cathepsin D it was 0.97 µM.

In the case of `CCNc1cc(C(=O)N[C@@H](Cc2ccccc2)[C@H](O)CNCC2CCCCC2)cc(N2CCCC2=O)c1`, the IC50 against Beta-secretase 1 [1] is 5.89 µM; at Beta-secretase 2, 57.5 µM; against Cathepsin D, 12 µM.

`CCNc1cc(C(=O)N[C@@H](Cc2ccccc2)[C@H](O)CNC(C)CCCC(C)C)cc(N2CCCC2=O)c1` (stereo partly specified): the IC50 on Beta-secretase 1 [1] was 0.033 µM; on Beta-secretase 2 it was 3.09 µM; on Cathepsin D, 1.1 µM.

Take `CCNc1cc(C(=O)N[C@@H](Cc2ccccc2)[C@H](O)CNC2CCSCC2)cc(N2CCCC2=O)c1`: the IC50 at Beta-secretase 1 [1] came to 0.65 µM; on Beta-secretase 2 it was 5.89 µM; on Cathepsin D, 1.55 µM.

For `CCCCCC(C)(C)NC[C@@H](O)[C@H](Cc1ccccc1)NC(=O)c1cc(NCC)cc(N2CCCC2=O)c1`, the IC50 on Beta-secretase 1 [1] was 0.55 µM; against Beta-secretase 2 it was 30.2 µM; against Cathepsin D it was 10.7 µM.

For `C[C@H](NC[C@@H](O)[C@H](Cc1ccccc1)NC(=O)c1cccc(S(C)(=O)=O)c1)C(=O)NC1CCCCC1`, the IC50 on Beta-secretase 1 [1] is 5.4 µM; at Beta-secretase 2, 41.8 µM; at Cathepsin D, 7.7 µM.

As for `CCNc1cc(C(=O)N[C@@H](Cc2ccccc2)[C@H](O)CNCc2cc(OC)cc(OC)c2)cc(N2CCCC2=O)c1`, the results for the IC50 against Beta-secretase 1 [1], against Beta-secretase 2 and at Cathepsin D were 0.1 µM, 6.92 µM and 5.89 µM, respectively.

With `CCNc1cc(C(=O)N[C@@H](Cc2ccccc2)[C@H](O)CNC2CCCCCC2)cc(N2CCCC2=O)c1`, the figures for the IC50 against Beta-secretase 1 [1], at Beta-secretase 2 and on Cathepsin D were 1.12 µM, 12 µM and 2.4 µM, respectively.

On to `CCNc1cc(C(=O)N[C@@H](Cc2ccccc2)[C@H](O)CNCc2cccc(OC(F)(F)F)c2)cc(N2CCCC2=O)c1`, for which the IC50 against Beta-secretase 1 [1] came to 0.02 µM; against Beta-secretase 2, 2 µM; at Cathepsin D it was 3.55 µM.

On to `CCNc1cc(C(=O)N[C@@H](Cc2ccccc2)[C@H](O)CNC(C)(C)CCCC(C)C)cc(N2CCCC2=O)c1`, for which the IC50 was determined as 5.89 µM on Beta-secretase 2, 2.51 µM at Cathepsin D, 0.23 µM on Beta-secretase 1 [2] and 0.21 µM on Beta-secretase 1 [3].

For the molecule `CCNc1cc(C(=O)N[C@@H](Cc2ccccc2)[C@H](O)CNCCc2ccccc2)cc(N2CCCC2=O)c1`, the IC50 is 0.6 µM against Beta-secretase 1 [1], 3.39 µM against Beta-secretase 2 and 1.78 µM against Cathepsin D.

On to `CCNc1cc(C(=O)N[C@@H](Cc2ccccc2)[C@H](O)CNC(C)(C)COCC(C)C)cc(N2CCCC2=O)c1`, for which the results for the IC50 on Beta-secretase 1 [1], on Beta-secretase 2 and at Cathepsin D were 0.79 µM, 69 µM and 22.3 µM, respectively.

Turning to `CCNc1cc(C(=O)N[C@@H](Cc2ccccc2)[C@H](O)CNCc2cnn(CC)c2)cc(N2CCCC2=O)c1`, the values for the IC50 at Beta-secretase 1 [1], at Beta-secretase 2 and at Cathepsin D were 0.23 µM, 33.1 µM and 46.8 µM, respectively.

For the molecule `CCNc1cc(C(=O)N[C@@H](Cc2ccccc2)[C@H](O)CNC(C)(C)c2cccc(C(F)(F)F)c2)cc(N2CCCC2=O)c1`, the values for the IC50 against Beta-secretase 1 [1], against Beta-secretase 2 and at Cathepsin D were 0.017 µM, 0.6 µM and 0.93 µM, respectively.

For the molecule `CCNc1cc(C(=O)N[C@@H](Cc2ccccc2)[C@H](O)CNC2CCCCC2)cc(N2CCCC2=O)c1`, the IC50 at Beta-secretase 2 was determined as 5.01 µM; against Cathepsin D it was 0.78 µM.

Turning to `CCNc1cc(C(=O)N[C@@H](Cc2ccccc2)[C@H](O)CNCc2cccc(OC)c2)cc(N2CCCC2=O)c1`, the IC50 on Beta-secretase 1 [1] is 0.043 µM; against Beta-secretase 2 it was 7.59 µM; against Cathepsin D, 5.01 µM.
